The record followed here is PubChem BioAssay (NCI).

What all share (test): NCI anticancer screen, dose series, 48 h
In assay [1] the test system is SNB-19 CNS.
For assay [2], the system named is OVCAR-3 ovarian.
Assay [3] has as its system NCI-H226 lung.
The subject of assay [4] is SW-620 colon.
Assay [5] has as its system OVCAR-5 ovarian.
Assay [6] relates to HCT-15 colon.
Assay [7] concerns OVCAR-8 ovarian.
The test system of assay [8] is SR leukemia.
Assay [9] deals with SNB-75 CNS.

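Each compound was tested at five concentrations against cells in 96-well plates for 48 hours. The concentration for 50% growth inhibition is given as GI50. Definition used: TGI = concentration required for complete inhibition of growth.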

As to `COc1ccc2c3c([nH]c2c1[N+](=O)[O-])C(C)N(Cc1ccccc1)CC3` (stereo unspecified), the TGI in assay [1] is greater than 100 µM; in assay [2], 49 µM; in assay [3], greater than 100 µM; in assay [4], greater than 100 µM; in assay [5], greater than 100 µM; in [6] it was greater than 100 µM. Further, the figures for the TGI in assay [7] and in [8] were greater than 100 µM and 45.2 µM, respectively.

Turning to `CC1=C(/C=C/C(C)=C/C2CC(N(C)C)=CC(=O)O2)C(C)(C)CCC1` (stereo unspecified), the TGI is 28.6 µM in assay [1]; 23.7 µM in [2]; 25.8 µM in [3]; 31.1 µM in assay [4]; 24.1 µM in assay [5]; 32.3 µM in assay [7]. Besides, the results for the TGI in assay [8] and in [9] were 28.7 µM and 32.4 µM, respectively.

Consider `ClC/C=C/COC1CCCCO1` (stereo unspecified), for which the TGI in [1], in assay [2], in assay [3], in [4], in [5] and in [6] was greater than 100 µM throughout. Moreover, the TGI in assay [7] was greater than 100 µM; in assay [8], 54.2 µM; in assay [9] it was greater than 100 µM.

Consider `CN(c1ccc(C(=O)c2ccc(N(C)S(C)(=O)=O)cc2)cc1)S(C)(=O)=O`, for which the TGI in [1], in assay [3], in [4], in [5], in assay [7] and in assay [8] was greater than 100 µM throughout. The compound further showed a TGI in [9] greater than 100 µM.

Turning to `c1ccc2c3c([nH]c2c1)[C@H]1C2CCCCN2CN1CC3` (stereo partly specified), the TGI in assay [1], in assay [2], in assay [4], in assay [5], in assay [6] and in [7] was greater than 100 µM throughout. Further, the TGI in [9] is greater than 100 µM.

On to `Cc1cccc(C)c1NC(=O)C1=NC(=S)NC(c2ccccc2)C1c1nc2ccccc2s1` (stereo unspecified), for which the TGI in assay [1], in [2], in [3], in [4], in assay [7] and in assay [8] was greater than 100 µM each time. The TGI in assay [9] is greater than 100 µM.

On to `CC(=O)[O-].Cn1ccnc1CNCc1nccn1C.[Cu+2].[O-][Cl+3]([O-])([O-])[O-]`, for which the GI50 in [1], in assay [2], in assay [3], in assay [4], in [7] and in [9] was greater than 100 µM throughout. Further, the TGI in assay [1], in assay [2], in [3], in assay [4], in assay [7] and in assay [9] was greater than 100 µM throughout.

With `NCCCC[C@@H]1NC(=O)[C@H](CC(=O)O)NC(=O)CNC(=O)[C@H](CCCN=C(N)N)NC(=O)[C@@H](N)CSSC[C@@H](C(=O)O)NC(=O)[C@H](CC(=O)O)NC(=O)[C@@H]2CCCN2C(=O)CNC1=O`, the GI50 in assay [1], in assay [2], in assay [3], in assay [4], in assay [5] and in [6] was greater than 100 µM in each case. Further, the GI50 in [7] was greater than 100 µM; in assay [8] it was greater than 100000 nM. Also, the TGI in assay [1], in [2], in assay [3], in assay [4], in assay [5] and in [6] was greater than 100 µM each time. For the same compound, the TGI in assay [7] and in assay [8] was greater than 100 µM throughout.

`O=C([CH-]C(=O)c1ccccc1)c1ccccc1.[CH-]1CCCCC1.[CH-]1CCCCC1.[CH-]1CCCCC1.[Sn+4]`: the GI50 in assay [1] was 5.43 µM; in [2] it was 5.89 µM; in [3] it was 5.73 µM; in assay [4], 3 µM; in assay [5], 22.8 µM; in assay [6] it was 5.67 µM. Besides, the figures for the GI50 in [7] and in assay [9] were 5.47 µM and 7.09 µM, respectively. Moreover, the TGI in assay [1] came out at 18.4 µM; in [2], 19.8 µM; in assay [3], 39.3 µM; in assay [4], 9.72 µM; in assay [5], 39.7 µM; in assay [6] it was 18.4 µM. The results for the TGI in [7] and in [9] were 55.4 µM and 21.3 µM, respectively.

As for `O=c1[nH]c2ccccc2nc1/C=C(\O)c1ccccc1O`, the TGI in [1], in [2], in [3], in [4], in [5] and in assay [6] was greater than 100 µM in each case. Besides, the TGI in assay [7], in assay [8] and in assay [9] was greater than 100 µM in each case.

As for `C[N+](C)(C)CC(=O)N/N=C(/C(=O)Nc1ccc(Br)cc1)C1C(=O)NC(=O)NC1=O`, the TGI in assay [1], in [2], in assay [3], in assay [4], in [5] and in [6] was greater than 100 µM throughout. The TGI in [8] and in assay [9] was greater than 100 µM each time.

In the case of `CCc1cccc(C)c1NC(=O)C(=O)CC(=O)c1ccc(Cl)s1`, the TGI in assay [1], in [3], in [4], in [6], in assay [7] and in assay [8] was greater than 100 µM in each case. The TGI in assay [9] was greater than 100 µM.

With `CCOP(=O)(OCC)C1CCCOC1=O` (stereo unspecified), the TGI in [1], in assay [2], in [4], in [5], in assay [6] and in assay [7] was greater than 100 µM throughout. In [9], this compound showed a TGI greater than 100 µM.

Regarding `CCCCCCCCCCCCCC[N+](C)(C)CCCCCCCCCCCCCC`, the GI50 in assay [1] is 2.38 µM; in assay [2] it was 3.58 µM; in assay [5], 2.92 µM; in assay [6], 3.33 µM; in [8], 2460 nM. Also, the TGI is 10 µM in [1]; 20.5 µM in assay [2]; 9.91 µM in assay [5]; greater than 100 µM in assay [6]; 9.96 µM in assay [8].
